The text below walks through data of patent US20230096137A1, “COMPOSITION FOR LITHOGRAPHY AND PATTERN FORMATION METHOD” (Mitsubishi Gas Chemical Company, Inc., priority 2020, published 2023).

The series can be described thus: Safe solvent solubility test of compound (PGMEA). Format: physicochemical. The following applies: 23° C., ultrasonic 30 minutes, visual. Here is the method:
(1) Safe Solvent Solubility Test of Compound
The solubility of the compound in PGMEA was evaluated according to the following criteria using the amount dissolved in each solvent. The amount of dissolution was measured at 23° C. by precisely weighing the compound into a test tube, adding a target solvent so as to attain a predetermined concentration, applying ultrasonic waves for 30 minutes in an ultrasonic cleaner, and then visually observing the subsequent state of the fluid.
A: 5.0% by mass≤Amount of dissolution
B: 2.0% by mass≤Amount of dissolution<5.0% by mass
C: Amount of dissolution<2.0% by mass
As to `CC(C)(COc1c(I)cc(N2CC=CC2)cc1I)COc1c(I)cc(N2CC=CC2)cc1I` [BMI-1], the “Safety solvent solubility PGMEA” value was “A (5.0% by mass≤Amount of dissolution)”.
As to `Cc1cc(C(c2ccc(I)cc2)c2cc(C)c(O)c(C)c2)cc(C)c1O` [BisB-1], the “Safety solvent solubility PGMEA” value was “A (5.0% by mass≤Amount of dissolution)”.
In the case of `Oc1ccc(-c2ccc(O)c(C(c3cc(-c4ccc(O)cc4)ccc3O)c3cc(I)cc(I)c3O)c2)cc1` [BisB-2] it was “A (5.0% by mass≤Amount of dissolution)”; in that of `Oc1ccc2c3c(ccc2c1I)Oc1ccc2c(I)c(O)ccc2c1C3c1ccc(-c2ccccc2)cc1` [XBisN-3], “A (5.0% by mass≤Amount of dissolution)”.
The result for `Oc1ccc2c3c(ccc2c1)Oc1ccc2cc(O)ccc2c1C3c1ccc(-c2ccccc2)cc1` [XBisN-C1, reference compound] reads “B (2.0% by mass≤Amount of dissolution<5.0% by mass)”; that for `Oc1ccc2c3c(ccc2c1)Oc1ccc2cc(O)ccc2c1C3c1cccc(I)c1` [XbisN-1], “B (2.0% by mass≤Amount of dissolution<5.0% by mass)”.
